This is an account of results in patent EP1832576A1, “4-Biarylyl-1-phenolyzetidin-2-ones” (Microbia Inc., priority 2003, dated 2005).

For one assay, the system named is cholesterol absorption from the intestine. The experiment in a line: In Vivo Assay of Hypolipidemic Agents using the Rat Cholesterol Absorption Model. More on the design: species or system Female Sprague-Dawley rats. As to conditions: Table 2, perorally, 1 mg/kg, 3H levels in serum three hours after 3H-cholesterol, versus vehicle only control. In short, it runs like this:
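Fasted female Sprague-Dawley rats (150–250 g, 4–6/group) received compound orally in olive oil or vehicle. Thirty minutes later they were given 3–5 µCi ^3H-cholesterol orally in olive oil, and serum ^3H was counted at 3 h. Percent inhibition versus vehicle control is at a fixed dose; ED50 is the dose giving half-maximal effect on serum ^3H.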
As to `O=C1[C@H](CC[C@H](O)c2ccc(F)cc2)[C@@H](c2ccc(-c3cccc(P(=O)(O)O)c3)cc2)N1c1ccccc1` [Example 122, (4'-{(2S,3R)-3-[(3S)-3-(4-fIuorophenyI)-3-hydroxypropyl]-4-oxo-1-phenylazetidin-2-yl}biphenyl-3-yl)phosphonic acid], the “% inhibition at 1 mg/kg” value amounted to 67%.

Still in this assay, the particulars now being: po, Table 1, perorally, 1 mg/kg, 3H levels in serum three hours after 3H-cholesterol, versus vehicle only control.
In turn, `O=C(O)c1ccc(-c2ccc([C@@H]3[C@@H](CC[C@H](O)c4ccc(F)cc4)C(=O)N3c3ccc(F)cc3)cc2)cc1O` [Example 110, 4'-{(2S,3R)-1-(4-fluorophenyl)-3-[(3S)-3-(4-fluorophenyl)-3-hydroxypropyl]-4-oxoazetidin-2-yl}-3-hydroxybiphenyl-4-carboxylic acid] yielded an inhibition at 1 mg/kg of 72%.

Compound `COc1cc(F)cc(-c2ccc([C@@H]3[C@@H](CC[C@H](O)c4ccc(F)cc4)C(=O)N3c3ccc(F)cc3)cc2)c1` [Example 111, (3R,4S)-4-(3'-fluoro-5'-methoxybiphenyl-4-yl)-1-(4-fluorophenyl)-3-[(3S)-3-(4-fluorophenyl)-3-hydroxypropyl]azetidin-2-one] returned an inhibition at 1 mg/kg of 72%.

The compound `O=C1[C@H](CC[C@H](O)c2ccc(F)cc2)[C@@H](c2ccc(-c3cc(O)cc(F)c3)cc2)N1c1ccc(F)cc1` [Example 112, (3R,4S)-4-(3'-fluoro-5'-hydroxybiphenyl-4-yl)-1-(4-fluorophenyl)-3-[(3S)-3-(4-fluorophenyl)-3-hydroxypropyl]azetidin-2-one] came in with an inhibition at 1 mg/kg of 75%.

On to `O=C1[C@H](CC[C@H](O)c2ccc(F)cc2)[C@@H](c2ccc(-c3cccc([C@@H]4O[C@@H](CO)[C@H](O)[C@@H](O)[C@@H]4O)c3)cc2)N1c1ccc(F)cc1` [Example 113, (1S)-1,5-anhydro-1-(4'-{(2S,3R)-1-(4-fluorophenyl)-3-[(3S)-3-(4-fluorophenyl)-3-hydroxypropyl]-4-oxoazetidin-2-yl}biphenyl-3-yl)-L-glucitol], for which the inhibition at 1 mg/kg turned out to be 67%.

For `O=C1[C@H](CC[C@H](O)c2ccc(F)cc2)[C@@H](c2ccc(-c3cc(O)cc(O)c3)cc2)N1c1ccc(F)cc1` [Example 114, (3R,4S)-4-(3',5'-dihydroxybiphenyl-4-yl)-1-(4-fluorophenyl)-3-[(3S)-3-(4-fluorophenyl)-3-hydroxypropyl]azetidin-2-one], the inhibition at 1 mg/kg amounted to 72%.

For `O=C1[C@H](CC[C@H](O)c2ccc(F)cc2)[C@@H](c2ccc(-c3cccc(B(O)O)c3)cc2)N1c1ccc(F)cc1` [Example 115, (4'-{(2S,3R)-1-(4-fluorophenyl)-3-[(3S)-3-(4-fluorophenyl)-3-hydroxypropyl]-4-oxoazetidin-2-yl}biphenyl-3-yl)boronic acid], at 1 mg/kg the inhibition was 70%.

On to `O=C1[C@H](CC[C@H](O)c2ccc(F)cc2)[C@@H](c2ccc(-c3ccc([C@H]4O[C@@H](CO)[C@H](O)[C@@H](O)[C@@H]4O)cc3)cc2)N1c1ccc(F)cc1` [Example 116, (1R)-1,5-anhydro-1-(4'-{(2S,3R)-1-(4-fluorophenyl)-3-[(3S)-3-(4-fluorophenyl)-3-hydroxypropyl]-4-oxoazetidin-2-yl}biphenyl-4-yl)-L-glucitol], for which the inhibition at 1 mg/kg came out at 81%.

For `O=C1[C@H](CC[C@H](O)c2ccc(F)cc2)[C@@H](c2ccc(-c3cccc(C[C@@H]4O[C@H](CO)[C@@H](O)[C@H](O)[C@H]4O)c3)cc2)N1c1ccc(F)cc1` [Example 117, 2,6-anhydro-1-deoxy-1-(4'-{(2S,3R)-1-(4-fluorophenyl)-3-[(3S)-3-(4-fluorophenyl)-3-hydroxypropyl]-4-oxoazetidin-2-yl}biphenyl-3-yl)-D-glycero-D-gulo-heptitol], the inhibition at 1 mg/kg was 26%.

`O=C1[C@H](CC[C@H](O)c2ccc(F)cc2)[C@@H](c2ccc(-c3cccc(S(=O)(=O)O)c3)cc2)N1c1ccc(F)cc1` [Example 118, 4'-{(2S,3R)-1-(4-fluorophenyl)-3-[(3S)-3-(4-fluorophenyl)-3-hydroxypropyl]-4-oxoazetidin-2-yl}biphenyl-3-sulfonic acid] yielded an inhibition at 1 mg/kg of 61%.

Regarding `O=C1[C@H](CC[C@H](O)c2ccc(F)cc2)[C@@H](c2ccc(-c3cccc(S)c3)cc2)N1c1ccc(F)cc1` [Example 119, (3R,4S)-1-(4-fluorophenyl)-3-[(3S)-3-(4-fluorophenyl)-3-hydroxypropyl]-4-(3'-mercaptobiphenyl-4-yl)azetidin-2-one], the inhibition at 1 mg/kg was found to be 56%.

For the compound `C[N+](C)(C)c1cccc(-c2ccc([C@@H]3[C@@H](CC[C@H](O)c4ccc(F)cc4)C(=O)N3c3ccc(F)cc3)cc2)c1` [Example 120, 4'-{(2S,3R)-1-(4-fluorophenyl)-3-[(3S)-3-(4-fluorophenyl)-3-hydroxypropyl]-4-oxoazetidin-2-yl}-N,N,N-trimethylbiphenyl-3-aminium], 1 mg/kg produced 23% inhibition.

Still in this assay, the particulars now being: po, Table 2, perorally, 1 mg/kg, 3H levels in serum three hours after 3H-cholesterol, versus vehicle only control.
`O=C1[C@H](CC[C@H](O)c2ccc(F)cc2)[C@@H](c2ccc(-c3cccc(O)c3)cc2O)N1c1ccc(F)cc1` [Example 121, (3R,4S)-4-(3,3'-dihydroxybiphenyl-4-yl)-1-(4-fluorophenyl)-3-[(3S)-3-(4-fluorophenyl)-3-hydroxypropyl]azetidin-2-one]: the inhibition at 1 mg/kg was 72%.

In turn, `CS(=O)(=O)c1cccc(-c2ccc([C@@H]3[C@@H](CC[C@H](O)c4ccc(F)cc4)C(=O)N3c3ccccc3)c(O)c2)c1` [Example 123, (3R,4S)-3-[(3S)-3-(4-fluorophenyl)-3-hydroxypropyl]-4-[3-hydroxy-3'-(methylsulfonyl)biphenyl-4-yl]-1-phenylazetidin-2-one] returned an inhibition at 1 mg/kg of 72%.

`O=C1[C@H](CC[C@H](O)c2ccc(F)cc2)[C@@H](c2ccc(-c3cccc(O)c3)cc2)N1c1ccc(-c2ccccc2)cc1` [Example 124, (3R,4S)-1-biphenyl-4-yl-3-[(3S)-3-(4-fluorophenyl)-3-hydroxypropyl]-4-(3'-hydroxybiphenyl-4-yl)azetidin-2-one] registered an inhibition at 1 mg/kg of 48%.

Compound `O=C1[C@H](CC[C@H](O)c2ccc(F)cc2)[C@@H](c2ccc(-c3ccc(O)cc3)cc2O)N1c1ccccc1` [Example 125, (3R,4S)-4-(3,4'-dihydroxybiphenyl-4-yl)-3-[(3S)-3-(4-fluorophenyl)-3-hydroxypropyl]-1-phenylazetidin-2-one] yielded an inhibition at 1 mg/kg of 64%.

Compound `O=C1[C@H](CC[C@H](O)c2ccc(F)cc2)[C@@H](c2ccc(-c3ccc(P(=O)(O)O)cc3)cc2O)N1c1ccccc1` [Example 127, (4'-{(2S,3R)-3-[(3S)-3-(4-Fluorophenyl)-3-hydroxypropyl]-4-oxo-1-phenylazetidin-2-yl}-3'-hydroxybiphenyl-4-yl)phosphonic acid] returned an inhibition at 1 mg/kg of 58%.

The compound `O=C1[C@H](CC[C@H](O)c2ccc(F)cc2)[C@@H](c2ccc(-c3ccc(S(=O)(=O)O)cc3)cc2O)N1c1ccccc1` [Example 128, Sodium 4'-{(2S,3R)-3-[(3S)-3-(4-fluorophenyl)-3-hydroxypropyl]-4-oxo-1-phenylazetidin-2-yl}-3'-hydroxybiphenyl-4-sulfonate] displayed an inhibition at 1 mg/kg of 60%.

Broadly, the % inhibition is how much of the control response was suppressed. What is called inhibition is how much of the control response was suppressed. High values mean a response far below the control, low ones a response near the control.
